Measured values as given in the supplement of paper PMC10307832.

Columns and labels:
Test in all cases: relative viability (nuclei count vs DMSO), 5 days (fraction); higher = more cells survive
[1] = compound: CS(=O)(=O)c1ccc(C(=O)Nc2ccc(Cl)c(-c3ccccn3)c2)c(Cl)c1 [Vismodegib] + CS(=O)(=O)CCNCc1ccc(-c2ccc3ncnc(Nc4ccc(OCc5cccc(F)c5)c(Cl)c4)c3c2)o1 [Lapatinib] (partner 2 µM)
Summary of the method: (§1)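 Lung cancer cell lines in 1536-well plates were dosed by pin tool the day after seeding, either with one drug alone or with a fixed anchor-drug dose plus five library-drug doses (not always all listed) in √10 steps. After 5 days, cells were fixed and their nuclei stained in one step (final 0.05% Triton X-100, 1% formaldehyde, 1 ug/ml Hoechst), then counted on 4× images. Relative viability is the nuclei count in treated wells divided by that in vehicle wells. Values are medians of duplicate plates.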

[2] = compound: N#CC[C@H](C1CCCC1)n1cc(-c2ncnc3[nH]ccc23)cn1 [Ruxolitinib] + O=C(c1cc(Cc2n[nH]c(=O)c3ccccc23)ccc1F)N1CCN(C(=O)C2CC2)CC1 [Olaparib] (partner 8 µM)
Summary of the method: as §1

[3] = compound: CS(=O)(=O)c1ccc(-c2cnc(N)c(C(=O)Nc3ccccc3)n2)cc1 [VE-821] + N=C(N)NC(=N)NCCc1ccccc1 [Phenformin] (partner 250 µM)
Summary of the method: as §1

[4] = compound: N#CC[C@H](C1CCCC1)n1cc(-c2ncnc3[nH]ccc23)cn1 [Ruxolitinib] + N=C(N)NC(=N)NCCc1ccccc1 [Phenformin] (partner 250 µM)
Summary of the method: as §1

Row | Cell Line | relative viability ([1]; first compound 0.08 µM) | relative viability ([1]; first compound 0.253 µM) | relative viability ([1]; first compound 0.8 µM) | relative viability ([1]; first compound 2.53 µM) | relative viability ([1]; first compound 8 µM) | relative viability ([2]; first compound 0.08 µM) | relative viability ([2]; first compound 0.253 µM) | relative viability ([2]; first compound 0.8 µM) | relative viability ([2]; first compound 2.53 µM) | relative viability ([2]; first compound 8 µM) | relative viability ([3]; first compound 0.08 µM) | relative viability ([3]; first compound 0.253 µM) | relative viability ([3]; first compound 0.8 µM) | relative viability ([3]; first compound 2.53 µM) | relative viability ([3]; first compound 8 µM) | relative viability ([4]; first compound 0.08 µM) | relative viability ([4]; first compound 0.253 µM) | relative viability ([4]; first compound 0.8 µM) | relative viability ([4]; first compound 2.53 µM) | relative viability ([4]; first compound 8 µM)
1 | EBC-1 | 0.215 | 0.189 | 0.205 | 0.195 | 0.215 | 0.718 | 0.726 | 0.77 | 0.708 | 0.533 |  |  |  |  |  |  |  |  |  | 
2 | IA-LM | 0.807 | 0.639 | 0.802 | 0.691 | 0.911 | 0.98 | 0.867 | 0.805 | 0.819 | 0.669 |  |  |  |  |  |  |  |  |  | 
3 | LCLC-103H |  |  |  |  |  | 0.774 | 0.753 | 0.786 | 0.837 | 0.758 | 0.335 | 0.31 | 0.352 | 0.351 | 0.269 | 0.349 | 0.326 | 0.298 | 0.337 | 0.286
4 | NCI-H441 |  |  |  |  |  | 0.508 | 0.54 | 0.502 | 0.472 | 0.484 | 1.02 | 0.988 | 1.02 | 1.02 | 0.842 | 0.769 | 0.743 | 1.13 | 0.688 | 0.651
5 | NCI-H522 |  |  |  |  |  | 0.632 | 0.719 | 0.704 | 0.468 | 0.705 | 0.675 | 0.593 | 0.662 | 0.555 | 0.654 | 0.663 | 0.644 | 0.728 | 0.575 | 0.617
6 | NCI-H1299 | 0.952 | 0.893 | 0.992 | 0.968 | 1 | 0.939 | 0.998 | 0.963 | 0.985 | 0.757 |  |  |  |  |  |  |  |  |  | 
7 | NCI-H1563 | 0.849 | 0.878 | 0.901 | 0.892 | 0.966 |  |  |  |  |  | 0.653 | 0.676 | 0.613 | 0.688 | 0.596 | 0.667 | 0.69 | 0.643 | 0.593 | 0.602
8 | NCI-H1623 |  |  |  |  |  |  |  |  |  |  | 0.564 | 0.557 | 0.449 | 0.575 | 0.497 | 0.525 | 0.608 | 0.574 | 0.637 | 0.343
9 | NCI-H1648 |  |  |  |  |  | 0.854 | 0.852 | 1.11 | 1.35 | 1.18 |  |  |  |  |  |  |  |  |  | 
10 | NCI-H1703 | 1.12 | 0.822 | 1.21 | 1.16 | 1.52 | 0.44 | 0.439 | 0.55 | 0.237 | 0.315 |  |  |  |  |  |  |  |  |  | 
11 | NCI-H2342 |  |  |  |  |  | 0.46 | 0.533 | 0.413 | 0.498 | 0.398 | 0.756 | 0.663 | 0.548 | 0.508 | 0.475 | 0.55 | 0.484 | 0.662 | 0.55 | 0.613
12 | SW 900 |  |  |  |  |  | 0.805 | 0.944 | 0.955 | 1.05 | 0.91 | 0.575 | 0.555 | 0.425 | 0.711 | 0.572 | 0.532 | 0.624 | 0.702 | 0.543 | 0.457
